Measurements reported in patent publication US4528380A, “5-(1-Propyl)n-butyl tetrazoles” (Delalande S.A., priority 1981, dated 1985).

Experiments:
[1] = system: mortality induced by bicucullin; test: Protection against mortality induced by intravenous bicucullin (anti-convulsive activity); assay type: in vivo; conditions: Mus musculus, ip; mice, compound i.p.; intravenous injection of 0.7 mg/kg of bicucullin; read-out: ED 50 against mortality induced by bicucullin
[2] = Acute toxicity, intraperitoneal, method of Miller and Tainter; conditions: mouse, in vivo, ip, mice, read-out: Acute toxicity LD 50
Experimental: Acute toxicity is assessed intraperitoneally on mice according to the method of Miller and Tainter described in Proc. Soc. Exp. Biol. Med. 57, 261, (1944).

Row | Compound | ED50 [1] [mg/kg] | LD50 [2] [mg/kg]
1 | CCC(C)(C)c1nn[nH]n1 [compound 1] | 100 | > 400
2 | CCCCC(C)(CC)c1nn[nH]n1 (centres unmarked) [compound 3] | 120 | 320
3 | CCCC(CCC)(CCC)c1nn[nH]n1 [compound 5] | 44 | 280
4 | CCCC(CCC)c1nn[nH]n1 [compound 6, [1-(1-n propyl)nbutyl] tetrazole] | 135 | > 400
